For this assay, the system named is bacteria isolated from a industrial cooling water sample. The assay is described as follows: Time-kill test in cooling water samples (MPN serial dilution). The assay is classed as cell-based. To be noted: 37° C., start about 5×10^7 CFU/ml. How it is done: In this example, tributyl tetradecyl phosphonium chloride (TTPC), tetrakis(hydroxymethyl)phosphonium sulfate (THPS), and combinations of TTPC and THPS are tested at different concentrations for efficacy against bacteria isolated from a industrial cooling water sample. Water samples containing a final bacterial concentration of about 5×10^7 CFU/ml are used. Biocide solutions are prepared and diluted in sterile deionized water and used within 2 hours.
Time-kill tests are carried out to determine the threshold concentrations required for biocide activity in the cooling water samples. Tests are conducted in a 96-deep well block format using a total sample volume of 600 μl for all evaluations. In these samples, no more than 10% of the total volume consists of the biocide and organism solution and all non-matrix additions are normalized for all samples. Each experimental 96-well block contains biocide-treated samples and control samples which lack biocide. The biocides are added to the bacterial suspension at various concentrations and mixed well. The mixture samples are then incubated at 37° C. At several time intervals starting from 1 hour, viable bacteria left in the mixture are determined using the MPN method of serial dilution.
Synergy Index (SI) is calculated as shown below. An SI value of less than 1 indicates synergy.
Ca: Concentration of biocide A required to achieve bacterial concentrations of 2×10^3 CFU/ml or less when used in combination
CA: Concentration of biocide A required to achieve bacterial concentrations of 2×10^3 CFU/ml or less when used alone
Cb: Concentration of biocide B required to achieve bacterial concentrations of 2×10^3 CFU/ml or less when used in combination
CB: Concentration of biocide B required to achieve bacterial concentrations of 2×10^3 CFU/ml or less when used alone

Consider `CCCCCCCCCCCCCC[P+](CCCC)(CCCC)CCCC.[Cl-]` [TTPC, tributyl tetradecyl phosphonium chloride], for which the “Concentration of active needed to achieve bacterial concentrations of 2×10^3 CFU/ml or less, biocide used alone” value came to 30 ppm (4 hr); 40 ppm (24 hr); 40 ppm (48 hr); 40 ppm (3 day); 40 ppm (5 day); 40 ppm (7 day).
On to “tetrakis(hydroxymethyl)phosphonium sulfate [THPS]”, for which the “Concentration of active needed to achieve bacterial concentrations of 2×10^3 CFU/ml or less, biocide used alone” value runs as follows: (4 hr) 100 ppm; (24 hr) 75 ppm; (48 hr) 75 ppm; (3 day) 75 ppm; (5 day) 75 ppm; (7 day) 75 ppm.

For the origin of these results see patent US20150018317A1, “BIOCIDAL COMPOSITION” (Dow Global Technologies LLC, priority 2010, published 2015).
